Laboratory results taken from patent publication US7799796B2, “Diaminopyrimidines as P2X3 and P2X2/3 modulators” (Roche Palo Alto LLC, priority 2005, dated 2010).

How the values were obtained:
rat P2X3 receptor = biological target: T1, rat P2X3 receptor (Rattus norvegicus, UniProt P49654); test: P2X3 FLIPR (Fluorometric Imaging Plate Reader) assay; assay type: cell-based; conditions: CHO-K1 cells transfected with rat P2X3; agonist α,β-meATP 1 μM; read-out: pIC50 for the P2X3 receptor (converted)
T1 construct: expressed in transfected cells; host or cells: CHO-K1
T1 sequence (P49654 1-397): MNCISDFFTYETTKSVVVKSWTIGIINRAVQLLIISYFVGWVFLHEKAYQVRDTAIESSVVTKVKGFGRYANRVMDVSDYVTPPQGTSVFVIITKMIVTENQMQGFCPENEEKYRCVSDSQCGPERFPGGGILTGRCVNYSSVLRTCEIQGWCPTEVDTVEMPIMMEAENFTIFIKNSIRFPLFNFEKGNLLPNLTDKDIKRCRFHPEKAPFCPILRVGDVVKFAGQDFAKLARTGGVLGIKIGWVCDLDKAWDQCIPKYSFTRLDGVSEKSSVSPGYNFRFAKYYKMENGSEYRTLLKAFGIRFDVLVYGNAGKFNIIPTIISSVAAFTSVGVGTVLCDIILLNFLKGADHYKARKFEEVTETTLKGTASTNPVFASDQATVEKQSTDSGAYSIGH
Procedure: (§1) CHO-K1 cells were transfected with cloned rat P2X3 or human P2X2/3 receptor subunits and passaged in flasks. 18-24 hours before the FLIPR experiment, cells were released from their flasks, centrifuged, and resuspended in nutrient medium at 2.5×10^5 cells/ml. The cells were aliquoted into black-walled 96-well plates at a density of 50,000 cells/well and incubated overnight in 5% CO2 at 37° C. On the day of the experiment, cells were washed in FLIPR buffer (calcium- and magnesium-free Hank's balanced salt solution, 10 mM HEPES, 2 mM CaCl2, 2.5 mM probenecid; FB). Each well received 100 μl FB and 100 μl of the fluorescent dye Fluo-3 AM [2 μM final conc.]. […]
(§2) Test compounds (dissolved in DMSO at 10 mM and serially diluted with FB) or vehicle were added to each well (25 μl of a 4× solution) and allowed to equilibrate for 20 minutes at room temperature. The plates were then placed in the FLIPR and a baseline fluorescence measurement (excitation at 488 nm and emission at 510-570 nm) was obtained for 10 seconds before a 100 μl/well agonist or vehicle addition. […] Fluorescence was measured for an additional 2 minutes at 1 second intervals after agonist addition. A final addition of ionomycin (5 μM, final concentration) was made to each well of the FLIPR test plate to establish cell viability and maximum fluorescence of dye-bound cytosolic calcium. […]

human P2X2/3 receptor = biological target: T2, human P2X2/3 receptor (Homo sapiens, UniProt P56373+Q9UBL9); test: P2X2/3 FLIPR (Fluorometric Imaging Plate Reader) assay; assay type: cell-based; conditions: CHO-K1 cells transfected with human P2X2/3; agonist α,β-meATP 5 μM; read-out: pIC50 for the P2X2/3 receptor (converted)
T2 construct: expressed in transfected cells; host or cells: CHO-K1
T2 sequence (P56373 1-397): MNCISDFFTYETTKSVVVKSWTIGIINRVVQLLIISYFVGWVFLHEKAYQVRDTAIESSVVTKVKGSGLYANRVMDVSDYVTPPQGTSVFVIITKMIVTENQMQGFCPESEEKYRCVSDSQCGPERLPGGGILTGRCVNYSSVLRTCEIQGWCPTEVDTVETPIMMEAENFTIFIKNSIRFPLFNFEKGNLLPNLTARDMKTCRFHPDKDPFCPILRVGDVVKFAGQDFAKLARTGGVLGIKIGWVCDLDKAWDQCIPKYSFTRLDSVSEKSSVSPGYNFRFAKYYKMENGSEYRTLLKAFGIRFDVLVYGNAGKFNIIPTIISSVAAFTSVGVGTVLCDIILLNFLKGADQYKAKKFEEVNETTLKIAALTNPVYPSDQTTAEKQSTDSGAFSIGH
T2 sequence (Q9UBL9 1-471): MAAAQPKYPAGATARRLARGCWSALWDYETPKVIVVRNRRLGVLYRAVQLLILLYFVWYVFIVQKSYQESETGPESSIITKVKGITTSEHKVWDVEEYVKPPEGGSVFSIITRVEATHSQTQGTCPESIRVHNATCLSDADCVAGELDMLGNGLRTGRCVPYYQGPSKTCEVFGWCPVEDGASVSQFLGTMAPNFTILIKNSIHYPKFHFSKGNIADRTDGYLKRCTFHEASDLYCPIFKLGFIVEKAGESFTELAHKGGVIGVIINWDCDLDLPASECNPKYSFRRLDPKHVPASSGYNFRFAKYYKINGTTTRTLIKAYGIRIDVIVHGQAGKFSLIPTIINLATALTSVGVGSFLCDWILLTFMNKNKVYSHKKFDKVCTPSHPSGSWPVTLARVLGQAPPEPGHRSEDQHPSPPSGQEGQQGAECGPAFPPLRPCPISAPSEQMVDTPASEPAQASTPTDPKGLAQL
Procedure: as §1, §2

SMILES: COc1cc(C(C)C)c(Oc2cnc(NC(=O)C(C)C)nc2N)cc1I [Compound 10, N-[4-Amino-5-(5-iodo-2-isopropyl-4-methoxy-phenoxy)-pyrimidin-2-yl]-isobutyramide]
- IC50 (rat P2X3 receptor): ~15.8 nM
- IC50 (human P2X2/3 receptor): ~39.8 nM
